Experimental data from ChEMBL document CHEMBL5303573, “Mapping human microbiome drug metabolism by gut bacteria and their genes” (Nature, 2019).

How the values were obtained:
[1] = The drug is tested on Bifidobacterium ruminantium strain: fecal isolate for biotransformation. The drug concentrations were measured before and after a 12-h incubation by liquid-chromatography-coupled mass spectrometry (LC–MS); conditions: 2 µM
[2] = The drug is tested on Bacteroides caccae strain: ATCC43185 for biotransformation. The drug concentrations were measured before and after a 12-h incubation by liquid-chromatography-coupled mass spectrometry (LC–MS); conditions: 2 µM
[3] = The drug is tested on Bacteroides finegoldii strain: DSM17565 for biotransformation. The drug concentrations were measured before and after a 12-h incubation by liquid-chromatography-coupled mass spectrometry (LC–MS); conditions: 2 µM
[4] = The drug is tested on Anaerococcus hydrogenalis strain: DSM7454 for biotransformation. The drug concentrations were measured before and after a 12-h incubation by liquid-chromatography-coupled mass spectrometry (LC–MS); conditions: 2 µM
[5] = The drug is tested on Anaerotruncus colihominis strain: DSM17241 for biotransformation. The drug concentrations were measured before and after a 12-h incubation by liquid-chromatography-coupled mass spectrometry (LC–MS); conditions: 2 µM
[6] = The drug is tested on Clostridium scindens strain: ATCC35704 for biotransformation. The drug concentrations were measured before and after a 12-h incubation by liquid-chromatography-coupled mass spectrometry (LC–MS); conditions: 2 µM
[7] = The drug is tested on Coprococcus comes strain: ATCC27758 for biotransformation. The drug concentrations were measured before and after a 12-h incubation by liquid-chromatography-coupled mass spectrometry (LC–MS); type: ADME; parameters: dose 2 uM, timepoint 0 vs 12 hours; conditions: 2 µM
[8] = The drug is tested on Enterococcus faecalis strain: V583 for biotransformation. The drug concentrations were measured before and after a 12-h incubation by liquid-chromatography-coupled mass spectrometry (LC–MS); conditions: 2 µM
[9] = The drug is tested on Ruminococcus lactaris strain: ATCC29176 for biotransformation. The drug concentrations were measured before and after a 12-h incubation by liquid-chromatography-coupled mass spectrometry (LC–MS); conditions: 2 µM
[10] = The drug is tested on Edwardsiella tarda strain: ATCC23685 for biotransformation. The drug concentrations were measured before and after a 12-h incubation by liquid-chromatography-coupled mass spectrometry (LC–MS); conditions: 2 µM
[11] = bifidobacterium adolescentis, 12 h, 2 µM
Description: The drug is tested on Bifidobacterium adolescentis strain: ATCC 15703 for biotransformation. The drug concentrations were measured before and after a 12-h incubation by liquid-chromatography-coupled mass spectrometry (LC–MS)

[12] = bacteroides fragilis, 12 h, 2 µM
Description: The drug is tested on Bacteroides fragilis strain: NCTC 9343 for biotransformation. The drug concentrations were measured before and after a 12-h incubation by liquid-chromatography-coupled mass spectrometry (LC–MS)

[13] = bacteroides thetaiotaomicron, 12 h, 2 µM
Description: The drug is tested on Bacteroides thetaiotaomicron strain: 7330 for biotransformation. The drug concentrations were measured before and after a 12-h incubation by liquid-chromatography-coupled mass spectrometry (LC–MS)

[14] = parabacteroides distasonis, 12 h, 2 µM
Description: The drug is tested on Parabacteroides distasonis strain: ATCC8503 for biotransformation. The drug concentrations were measured before and after a 12-h incubation by liquid-chromatography-coupled mass spectrometry (LC–MS)

[15] = segatella copri, 12 h, 2 µM
Description: The drug is tested on Prevotella copri strain: DSM18205 for biotransformation. The drug concentrations were measured before and after a 12-h incubation by liquid-chromatography-coupled mass spectrometry (LC–MS)

[16] = limosilactobacillus reuteri cf48-3a, 12 h, 2 µM
Description: The drug is tested on Lactobacillus reuteri CF48-3A strain: BEI HM-102 for biotransformation. The drug concentrations were measured before and after a 12-h incubation by liquid-chromatography-coupled mass spectrometry (LC–MS)

[17] = roseburia intestinalis, 12 h, 2 µM
Description: The drug is tested on Roseburia intestinalis strain: L1-82 for biotransformation. The drug concentrations were measured before and after a 12-h incubation by liquid-chromatography-coupled mass spectrometry (LC–MS)

[18] = The drug is tested on Blautia luti strain: DSM14534 for biotransformation. The drug concentrations were measured before and after a 12-h incubation by liquid-chromatography-coupled mass spectrometry (LC–MS); type: ADME; parameters: dose 2 uM, timepoint 0 vs 12 hours; conditions: 2 µM
[19] = The drug is tested on Eubacterium hallii strain: DSM3353 for biotransformation. The drug concentrations were measured before and after a 12-h incubation by liquid-chromatography-coupled mass spectrometry (LC–MS); conditions: anaerobutyricum hallii, 2 µM
[20] = The drug is tested on Bifidobacterium breve strain: DSM20213 for biotransformation. The drug concentrations were measured before and after a 12-h incubation by liquid-chromatography-coupled mass spectrometry (LC–MS); conditions: 2 µM

| Compound | Bacterial Biotransformation [1] | Bacterial Biotransformation [2] | Bacterial Biotransformation [3] | Bacterial Biotransformation [4] | Bacterial Biotransformation [5] | Bacterial Biotransformation [6] | Bacterial Biotransformation [7] | Bacterial Biotransformation [8] | Bacterial Biotransformation [9] | Bacterial Biotransformation [10] | Bacterial Biotransformation [11] | Bacterial Biotransformation [12] | Bacterial Biotransformation [13] | Bacterial Biotransformation [14] | Bacterial Biotransformation [15] | Bacterial Biotransformation [16] | Bacterial Biotransformation [17] | Bacterial Biotransformation [18] | Bacterial Biotransformation [19] | Bacterial Biotransformation [20] |
| --- | --- | --- | --- | --- | --- | --- | --- | --- | --- | --- | --- | --- | --- | --- | --- | --- | --- | --- | --- | --- |
| C#C[C@]1(OC(C)=O)CC[C@H]2[C@@H]3CCC4=C[C@@H](OC(C)=O)CC[C@@H]4[C@H]3CC[C@@]21C [ETHYNODIOL DIACETATE] | Compound NOT metabolized | Compound NOT metabolized | Compound NOT metabolized | Compound NOT metabolized | Compound NOT metabolized | Compound NOT metabolized | Compound NOT metabolized | Compound NOT metabolized | Compound NOT metabolized | Compound NOT metabolized | Compound NOT metabolized | Compound NOT metabolized | Compound NOT metabolized | Compound NOT metabolized | Compound NOT metabolized | Compound NOT metabolized | Compound NOT metabolized | – | – | – |
| CC(C)OC(=O)C(C)(C)Oc1ccc(C(=O)c2ccc(Cl)cc2)cc1 [FENOFIBRATE] | Compound metabolized | Compound NOT metabolized | Compound NOT metabolized | Compound NOT metabolized | Compound metabolized | Compound NOT metabolized | – | – | – | Compound NOT metabolized | Compound NOT metabolized | Compound metabolized | Compound NOT metabolized | Compound NOT metabolized | Compound metabolized | Compound NOT metabolized | – | Compound metabolized | Compound NOT metabolized | – |
| CC(C)(C)NC[C@H](O)COc1nsnc1N1CCOCC1.O=C(O)/C=C\C(=O)O [TIMOLOL MALEATE] | Compound NOT metabolized | Compound NOT metabolized | Compound NOT metabolized | Compound NOT metabolized | Compound NOT metabolized | Compound NOT metabolized | Compound NOT metabolized | Compound NOT metabolized | Compound NOT metabolized | Compound NOT metabolized | Compound NOT metabolized | Compound NOT metabolized | – | Compound NOT metabolized | Compound NOT metabolized | Compound NOT metabolized | Compound NOT metabolized | Compound NOT metabolized | Compound NOT metabolized | Compound NOT metabolized |
| CCCCC1=NC2(CCCC2)C(=O)N1Cc1ccc(-c2ccccc2-c2nnn[nH]2)cc1 [IRBESARTAN] | Compound metabolized | Compound NOT metabolized | Compound metabolized | Compound metabolized | Compound metabolized | Compound metabolized | Compound metabolized | Compound NOT metabolized | Compound metabolized | Compound metabolized | Compound metabolized | Compound metabolized | Compound metabolized | Compound metabolized | Compound metabolized | Compound metabolized | – | Compound NOT metabolized | Compound metabolized | – |
| CNS(=O)(=O)Cc1ccc2[nH]cc(CCN(C)C)c2c1.O=C(O)CCC(=O)O [SUMATRIPTAN SUCCINATE] | Compound NOT metabolized | Compound NOT metabolized | Compound NOT metabolized | Compound NOT metabolized | Compound NOT metabolized | Compound NOT metabolized | Compound NOT metabolized | Compound NOT metabolized | Compound NOT metabolized | Compound NOT metabolized | Compound NOT metabolized | Compound NOT metabolized | – | Compound NOT metabolized | Compound NOT metabolized | Compound NOT metabolized | Compound NOT metabolized | Compound NOT metabolized | Compound NOT metabolized | Compound NOT metabolized |
| Cc1nc(-c2ccc(OCC(C)C)c(C#N)c2)sc1C(=O)O [FEBUXOSTAT] | Compound NOT metabolized | – | Compound NOT metabolized | Compound NOT metabolized | Compound NOT metabolized | Compound NOT metabolized | Compound NOT metabolized | Compound NOT metabolized | Compound metabolized | Compound NOT metabolized | Compound NOT metabolized | Compound NOT metabolized | Compound NOT metabolized | Compound NOT metabolized | – | Compound NOT metabolized | – | Compound NOT metabolized | Compound NOT metabolized | – |
| CCc1cccc2c3c([nH]c12)C(CC)(CC(=O)O)OCC3 (stereo unspecified) [ETODOLAC] | Compound NOT metabolized | Compound NOT metabolized | Compound NOT metabolized | Compound NOT metabolized | Compound NOT metabolized | Compound NOT metabolized | Compound NOT metabolized | Compound NOT metabolized | Compound NOT metabolized | Compound NOT metabolized | Compound NOT metabolized | – | Compound metabolized | Compound NOT metabolized | Compound NOT metabolized | Compound NOT metabolized | – | Compound NOT metabolized | Compound NOT metabolized | – |
| C[C@]12CCC(=O)C=C1[C@@H]1C[C@@H]1[C@H]1[C@@H]3[C@@H]4C[C@@H]4[C@@]4(CCC(=O)O4)[C@@]3(C)CC[C@@H]12 [DROSPIRENONE] | Compound NOT metabolized | Compound NOT metabolized | Compound NOT metabolized | Compound NOT metabolized | Compound NOT metabolized | Compound NOT metabolized | – | Compound NOT metabolized | Compound NOT metabolized | Compound NOT metabolized | Compound NOT metabolized | Compound metabolized | Compound NOT metabolized | Compound NOT metabolized | Compound NOT metabolized | Compound NOT metabolized | – | Compound NOT metabolized | Compound NOT metabolized | – |
| O=C(NCc1ccccc1)OCCO [BURAMATE] | Compound NOT metabolized | Compound NOT metabolized | Compound NOT metabolized | – | Compound NOT metabolized | Compound NOT metabolized | Compound NOT metabolized | Compound NOT metabolized | Compound NOT metabolized | Compound NOT metabolized | Compound NOT metabolized | Compound NOT metabolized | Compound NOT metabolized | Compound NOT metabolized | Compound NOT metabolized | Compound NOT metabolized | Compound NOT metabolized | Compound NOT metabolized | Compound NOT metabolized | – |
